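Where inhibition never reached the appropriate level, the endpoint shown equals the highest concentration tested. Otherwise, values were interpolated linearly from a five-concentration, 48-hour dose response in 96-well plates. At the GI50, growth is halved.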 The source made the active and inactive calls. Cut-off read from the data, not from the text of the source: active = GI50 up to about 1.1 µM and inactive = higher.
Experiments:
Experiment in all cases: growth of human tumour cells (NCI), 48 h
[1] = system: IGROV-1
[2] = system: KM12
[3] = system: SNB-19
[4] = system: SK-MEL-2
[5] = system: SR
[6] = system: UACC-62
[7] = system: A549
[8] = system: LXFL 529
[9] = system: HOP-62
[10] = system: DMS-114
[11] = system: SK-MEL-28
[12] = system: DLD-1
[13] = system: ACHN
[14] = system: HCC 2998
[15] = system: XF498
[16] = system: HCT-15
[17] = system: LOX IMVI
[18] = system: 786-0
[19] = system: DU-145
[20] = system: PC-3

Row | Compound | GI50 [1] | GI50 [2] | GI50 [3] | GI50 [4] | GI50 [5] | GI50 [6] | GI50 [7] | GI50 [8] | GI50 [9] | GI50 [10] | GI50 [11] | GI50 [12] | GI50 [13] | GI50 [14] | GI50 [15] | GI50 [16] | GI50 [17] | GI50 [18] | GI50 [19] | GI50 [20]
1 | O=C(NN1C(=O)C(Cl)C1c1ccccc1O)c1ccccc1O (configuration not stated) | 30.6 µM (inactive) | 7.31 µM (inactive) | 0.365 µM (active) | 19.8 µM (inactive) | 17.8 µM (inactive) | 27.9 µM (inactive) | 17.8 µM (inactive) | 41.4 µM (inactive) | 29 µM (inactive) | 6.82 µM (inactive) | 22.3 µM (inactive) |  |  |  |  |  |  |  |  | 
2 | Cc1ccc(N2C(=O)/C(=C3\SC(C(N)=O)=C(N)N3c3ccccc3)SC2=S)cc1 | > 100 µM (inactive) | > 100 µM (inactive) | 57.5 µM (inactive) |  |  | > 100 µM (inactive) | > 100 µM (inactive) | > 100 µM (inactive) | 25.8 µM (inactive) |  | > 100 µM (inactive) | 90.8 µM (inactive) | 66.1 µM (inactive) | > 100 µM (inactive) |  |  |  |  |  | 
3 | c1ccc2c3c(ccc2c1)-c1[nH]ncc1CCO3 | > 52 µM (inactive) | 37.2 µM (inactive) | 47.1 µM (inactive) | 36.1 µM (inactive) |  | 29.9 µM (inactive) | 37 µM (inactive) |  | 30.6 µM (inactive) | 32.7 µM (inactive) | 50.8 µM (inactive) | 34.8 µM (inactive) |  | 35.6 µM (inactive) | 32.4 µM (inactive) | 20.5 µM | 33.1 µM (inactive) |  |  | 
4 | COc1ccc(Cc2nn(C3OC(COC(C)=O)C(OC(C)=O)C(OC(C)=O)C3OC(C)=O)c(=S)n(-c3ccc(OC)cc3)c2=O)cc1 (configuration not stated) | > 100 µM (inactive) | > 100 µM (inactive) | > 100 µM (inactive) | > 100 µM (inactive) |  | > 100 µM (inactive) | > 100 µM (inactive) |  | > 100 µM (inactive) |  | > 100 µM (inactive) | > 100 µM (inactive) |  | > 100 µM (inactive) | > 100 µM (inactive) | > 100 µM | > 100 µM (inactive) |  |  | 
5 | Cc1ccc(S(=O)(=O)OC[C@@H]2CO2)cc1 | > 100 µM (inactive) | > 100 µM (inactive) | > 100 µM (inactive) | > 100 µM (inactive) | > 100 µM (inactive) |  | > 100 µM (inactive) | > 100 µM (inactive) | > 100 µM (inactive) |  | > 100 µM (inactive) | > 100 µM (inactive) | > 100 µM (inactive) | > 100 µM (inactive) |  | > 100 µM | 99.3 µM (inactive) | > 100 µM (inactive) |  | 
6 | O=C1C(Br)=CC2([N+](=O)[O-])CCNC3=C(C4=NCCc5c[nH]c(c54)C3=O)C2=C1Br (configuration not stated) | 1.99 µM (inactive) | 3.96 µM (inactive) | 2.81 µM (inactive) | 1.65 µM (inactive) |  | 1.72 µM (inactive) | 3 µM (inactive) |  | 3.58 µM (inactive) | 0.163 µM (active) | 3.26 µM (inactive) | 0.364 µM (active) |  | 2.62 µM (inactive) | 2.24 µM (inactive) | 0.796 µM | 1.56 µM (inactive) |  |  | 
7 | CCCN(CCC)c1cc2c(cc1F)c(=O)c(C(=O)O)cn2-c1ccc(N2CCN(C)CC2)cn1 | 12.9 µM (inactive) | 15.1 µM (inactive) | 15.3 µM (inactive) |  | 15.7 µM (inactive) | 18.5 µM (inactive) | 16.1 µM (inactive) |  | 16.7 µM (inactive) |  | 19.6 µM (inactive) |  |  |  |  | 22.9 µM | 3 µM (inactive) | 15.8 µM (inactive) | 19.5 µM (inactive) | 19 µM (inactive)
8 | Cc1c2cnccc2c(C)c2c1c1ccccc1n2CC1CO1 (configuration not stated) | 1.48 µM (inactive) | 1.58 µM (inactive) | 2.04 µM (inactive) | 1.66 µM (inactive) |  | 1.63 µM (inactive) | 1.51 µM (inactive) |  | 1.64 µM (inactive) | 0.82 µM (active) | 1.71 µM (inactive) | 1.55 µM (inactive) |  | 1.18 µM (inactive) |  | 1.54 µM | 0.393 µM (active) |  |  | 
9 | CN1NC(c2ccc(Cl)cc2)=C(C#N)C(=O)CC1c1ccccc1 (configuration not stated) |  | > 100 µM (inactive) | > 100 µM (inactive) | > 100 µM (inactive) | > 100 µM (inactive) |  | > 100 µM (inactive) | > 100 µM (inactive) |  | > 100 µM (inactive) | > 100 µM (inactive) | > 100 µM (inactive) | > 100 µM (inactive) |  |  | > 100 µM | > 100 µM (inactive) | > 100 µM (inactive) |  | 
10 | O=C(Cc1nc2ccc(C(=O)c3ccccc3)cc2nc1O)C(=O)Nc1nc2ccccc2[nH]1 | 93.5 µM (inactive) | 24.6 µM (inactive) | > 100 µM (inactive) |  | 11.7 µM (inactive) | 38.7 µM (inactive) | 50.9 µM (inactive) | 45.2 µM (inactive) | 33.3 µM (inactive) | 23.8 µM (inactive) | 98.6 µM (inactive) |  | 86.7 µM (inactive) | > 100 µM (inactive) |  | 75 µM | 44 µM (inactive) | > 100 µM (inactive) |  | 

Source: ChEMBL document CHEMBL1201862, “PubChem BioAssay data set” (2004)
